Data reported in US7855230B2, “Derivatives of 3,3-diphenylpropylamines” (UCB Pharma GmbH, priority 1999, dated 2010).

What was measured:
[1] = target: T1, human muscarinic M3 receptor (Homo sapiens, UniProt P20309); assay: [3H]-methylscopolamine binding to recombinant human M3 receptors; settings: BSR-M3H cell membranes, 60 minutes at 25° C.
T1 construct: expressed in transfected cells; host or cells: BSR-M3H cells (membrane preparation)
Method: WO 94/11337 discloses that the active metabolite has high affinity to muscarinic receptors in the guinea-pig bladder. Different compounds of the present invention were tested in a well established standardized assay, measuring the binding of [^3H]-methylscopolamine to recombinant human M3 receptors. BSR-M3H cells transfected with a plasmid encoding the human muscarinic M3 receptor were used to prepare membranes in modified Tris-HCl pH 7.4 buffer using standard techniques. An aliquot of the membrane preparation was incubated with [^3H]-methylscopolamine in the presence or absence of different concentrations of several compounds of the invention for 60 minutes at 25° C. Nonspecific binding was estimated in the presence of 1 μM atropine. Membranes were filtered and washed three times and the filters were counted to determine the amount of [^3H]-methylscopolamine specifically bound.

[2] = tested on: urinary bladder over the effect on the salivation; settings: preclinical, Nilvebrant et al. 1997; cited from earlier work
[3] = Penetration through human skin, flow through cell; format: in vitro ADME; settings: human skin 200 μm thick, 32° C., acceptor phosphate buffer pH 6.2
Method: Different compounds of the invention were tested for their ability to penetrate the human skin (200 μm thick) in the “Flow through cell” at 32° C. according to Tiemessen et al. (Acta Pharm. Technol. 1998; 34:99-101). Phosphate buffer (pH 6.2) was used as the acceptor medium. Samples were drawn at different time points and analysed by RP-HPLC with UV detection (220 nm). Permeation profiles were plotted and mean flux rates of different substances were calculated by linear regression analysis.

[4] = tested on: guinea-pig ileum; assay: Anticholinergic activity in guinea-pig ileum (methacholine-induced contractile response); format: cell-based; settings: Cavia porcellus; methacholine 0.6 μM, Krebs solution pH 7.4, 32° C.
Method: The compounds were tested for their anticholinergic activity in a standard tissue assay, the guinea-pig ileum. A segment of ileum was obtained from Duncan Hartley guinea-pigs which were scarified by cervical dislocation. The tissue was placed under 1 g tension in a 10 ml bath containing Krebs, solution (pH 7.4, 32° C.) and the concentration-dependent ability of different compounds to reduce the methacholine-induced (0.6 μM) contractile response was recorded.

[5] = Incubation of labelled substrates: metabolic degradation to the carboxylic acid; format: in vitro ADME, human; settings: 3 hrs at 37.0° C., 40 μM; compared with unlabelled hydroxy metabolite
Method: The metabolic degradation of the unlabelled hydroxy metabolite (i.e. Intermediate D) and the deuteriated hydroxy-metabolite (Intermediate d2B) were compared in vitro. Used were the respective enantiomers and the racemates.
The hydroxy metabolite and the deuteriated hydroxy-metabolite expressed significant differences in the rate to produce the corresponding carboxylic acid.
The measurement was performed with an incubation time of 3 hrs at 37.0° C. in a concentration of 40 μM.

T1 sequence (P20309 whole entry): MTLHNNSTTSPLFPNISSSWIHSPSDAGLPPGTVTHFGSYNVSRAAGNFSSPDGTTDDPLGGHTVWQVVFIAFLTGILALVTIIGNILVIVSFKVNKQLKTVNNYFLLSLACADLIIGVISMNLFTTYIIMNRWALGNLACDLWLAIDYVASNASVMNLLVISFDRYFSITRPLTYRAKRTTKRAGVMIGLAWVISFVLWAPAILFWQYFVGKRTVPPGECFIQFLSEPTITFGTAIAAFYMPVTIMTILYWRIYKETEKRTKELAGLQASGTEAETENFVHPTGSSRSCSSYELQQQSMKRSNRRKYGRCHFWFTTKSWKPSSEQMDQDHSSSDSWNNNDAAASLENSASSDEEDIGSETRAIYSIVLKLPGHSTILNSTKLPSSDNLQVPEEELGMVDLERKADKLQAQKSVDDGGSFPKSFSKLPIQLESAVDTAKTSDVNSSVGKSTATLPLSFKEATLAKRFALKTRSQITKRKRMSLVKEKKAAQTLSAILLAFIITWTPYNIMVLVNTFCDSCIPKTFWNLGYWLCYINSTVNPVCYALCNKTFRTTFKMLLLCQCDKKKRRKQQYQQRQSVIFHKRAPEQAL

Row | Structure (SMILES) | IC50 [1] | IC50 [4] | also measured
1 | CC(C)N(CCC(c1ccccc1)c1cc(COC(=O)c2ccccc2)ccc1OC(=O)c1ccccc1)C(C)C (racemic) [BzO-/-OBz, (±)-Benzoic acid 4-benzoyloxymethyl-2-(3-diisopropylamino-1-phenylpropyl)-phenyl ester] | 2400 nM |  | 
2 | CC(=O)OCc1ccc(OC(=O)C(C)C)c(C(CCN(C(C)C)C(C)C)c2ccccc2)c1 (racemic) [AcO-/-OiBut, (±)-Isobutyric acid 4-acetoxymethyl-2-(3-diisopropylamino-1-phenylpropyl)-phenyl ester] | 3600 nM |  | 
3 | CCN(CC)CC#CCOC(=O)C(O)(c1ccccc1)C1CCCCC1 (centres unmarked) [oxybutynin] |  |  | tissue selectivity in vivo for the urinary bladder over the effect on the salivation [2]: reversed selectivity
4 | CCC(=O)OCc1ccc(OC(=O)CC)c(C(CCN(C(C)C)C(C)C)c2ccccc2)c1 (racemic) [PropO-/-OProp, (±)-Propionic acid 2-(3-diisopropylamino-1-phenylpropyl)-4-propionyloxymethylphenyl ester] |  |  | Flux rate [3]: 70 μg/cm^2/24 hrs
5 | CC(C)N(CC[C@H](c1ccccc1)c1cc(COC(=O)c2ccccc2)ccc1OC(=O)c1ccccc1)C(C)C [(+)BzO-/-OBz, R-(+)-benzoic acid 4-benzoyloxymethyl-2-(3-diisopropylamino-1-phenylpropyl)-phenyl ester] |  | 220 nM | 
6 | CC(=O)OCc1ccc(OC(=O)C(C)C)c([C@H](CCN(C(C)C)C(C)C)c2ccccc2)c1 [(+)AcO-/-OiBut, R-(+)-isobutyric acid 4-acetoxymethyl-2-(3-diisopropylamino-1-phenylpropyl)-phenyl ester] |  | 240 nM | 
7 | [2H]C([2H])(O)c1ccc(O)c(C(CCN(C(C)C)C(C)C)c2ccccc2)c1 (racemic) [deuteriated hydroxy-metabolite, (±)-2-(3-Diisopropylamino-1-phenylpropyl)-4-hydroxy-[^2H2]methyl-phenol] |  |  | decreased velocity of formation of the carboxylic acid [5]: 10%
8 | CC(C)C(=O)Oc1ccc(CO)cc1C(CCN(C(C)C)C(C)C)c1ccccc1 (racemic) [HO-/-OiBut, (±)-Isobutyric acid 2-(3-diisopropylamino-1-phenylpropyl)-4-hydroxymethylphenyl ester] |  |  | Flux rate [3]: 150 μg/cm^2/24 hrs
9 | Cc1ccc(O)c([C@H](CCN(C(C)C)C(C)C)c2ccccc2)c1 [tolterodine, Tolterodine] |  |  | tissue selectivity in vivo for the urinary bladder over the effect on the salivation [2]: favourable tissue selectivity
10 | CC(C)N(CC[C@H](c1ccccc1)c1cc(CO)ccc1OC(=O)c1ccccc1)C(C)C [(+)HO-/-OBz, R-(+)-Benzoic acid 2-(3-diisopropylamino-1-phenylpropyl)-4-hydroxymethylphenyl ester] | 172 nM | 180 nM | 
11 | CC(C)N(CC[C@H](c1ccccc1)c1cc(CO)ccc1O)C(C)C [(+)HO-/-OH, R-(+)-2-(3-Diisopropylamino-1-phenylpropyl)-4-hydroxymethyl-phenol, reference compound] | 8.7 nM | 20 nM | 
12 | CC(C)N(CCC(c1ccccc1)c1cc(CO)ccc1O)C(C)C (racemic) [HO-/-OH, (±)-2-(3-Diisopropylamino-1-phenylpropyl)-4-hydroxymethylphenol, reference compound] |  |  | Flux rate [3]: 3 μg/cm^2/24 hrs
13 | CC(C)C(=O)Oc1ccc(CO)cc1[C@H](CCN(C(C)C)C(C)C)c1ccccc1 [(+)HO-/-OiBut, R-(+)-Isobutyric acid 2-(3-diisopropylamino-1-phenylpropyl)-4-hydroxymethylphenyl ester] | 159 nM | 57 nM | 
14 | CC(C)N(CC[C@@H](c1ccccc1)c1cc(CO)ccc1O)C(C)C [(−)HO-/-OH, S-(−)-2-(3-Diisopropylamino-1-phenylpropyl)-4-hydroxymethyl-phenol, reference compound] | 1300 nM | 680 nM | 
15 | CC(=O)OCc1ccc(OC(=O)c2ccccc2)c(C(CCN(C(C)C)C(C)C)c2ccccc2)c1 (racemic) [AcO-/-OBz, (±)-Benzoic acid 2-(3-diisopropylamino-1-phenylpropyl)-4-acetoxymethylphenyl ester] | 5400 nM |  | 
16 | CC(C)C(=O)OCc1ccc(OC(=O)C(C)C)c(C(CCN(C(C)C)C(C)C)c2ccccc2)c1 (racemic) [iButO-/-OiBut, (±)-Isobutyric acid 2-(3-diisopropylamino-1-phenylpropyl)-4-isobutyryloxymethylphenyl ester] |  |  | Flux rate [3]: 60 μg/cm^2/24 hrs
